Source: patent US12258327B2, “5-membered heteroaryl-containing aminopyridine compounds as EGFR inhibitors” (YUHAN CORPORATION, priority 2021, dated 2025)
Like-named read-outs stand apart in the source and are kept apart here.

Tests used:
EGFR del19/T790M/C797S = EGFR del19/T790M/C797S (Homo sapiens, UniProt P00533, C797S/DEL746-750/T790M); assay: Biochemical EGFR kinase assay (Lance Ultra TR-FRET), triple mutant del19/T790M/C797S
In short: (§1)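 In this biochemical assay, phosphorylation after a one-hour room-temperature reaction was detected with europium-labelled anti-phosphopeptide antibody at 2 nM final concentration.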

EGFR L858R/T790M/C797S = EGFR L858R/T790M/C797S (Homo sapiens, UniProt P00533, C797S/L858R/T790M); assay: Biochemical EGFR kinase assay (Lance Ultra TR-FRET), triple mutant L858R/T790M/C797S
Sequence of EGFR L858R/T790M/C797S (P00533 25-1210 T790M/C797S/L858R): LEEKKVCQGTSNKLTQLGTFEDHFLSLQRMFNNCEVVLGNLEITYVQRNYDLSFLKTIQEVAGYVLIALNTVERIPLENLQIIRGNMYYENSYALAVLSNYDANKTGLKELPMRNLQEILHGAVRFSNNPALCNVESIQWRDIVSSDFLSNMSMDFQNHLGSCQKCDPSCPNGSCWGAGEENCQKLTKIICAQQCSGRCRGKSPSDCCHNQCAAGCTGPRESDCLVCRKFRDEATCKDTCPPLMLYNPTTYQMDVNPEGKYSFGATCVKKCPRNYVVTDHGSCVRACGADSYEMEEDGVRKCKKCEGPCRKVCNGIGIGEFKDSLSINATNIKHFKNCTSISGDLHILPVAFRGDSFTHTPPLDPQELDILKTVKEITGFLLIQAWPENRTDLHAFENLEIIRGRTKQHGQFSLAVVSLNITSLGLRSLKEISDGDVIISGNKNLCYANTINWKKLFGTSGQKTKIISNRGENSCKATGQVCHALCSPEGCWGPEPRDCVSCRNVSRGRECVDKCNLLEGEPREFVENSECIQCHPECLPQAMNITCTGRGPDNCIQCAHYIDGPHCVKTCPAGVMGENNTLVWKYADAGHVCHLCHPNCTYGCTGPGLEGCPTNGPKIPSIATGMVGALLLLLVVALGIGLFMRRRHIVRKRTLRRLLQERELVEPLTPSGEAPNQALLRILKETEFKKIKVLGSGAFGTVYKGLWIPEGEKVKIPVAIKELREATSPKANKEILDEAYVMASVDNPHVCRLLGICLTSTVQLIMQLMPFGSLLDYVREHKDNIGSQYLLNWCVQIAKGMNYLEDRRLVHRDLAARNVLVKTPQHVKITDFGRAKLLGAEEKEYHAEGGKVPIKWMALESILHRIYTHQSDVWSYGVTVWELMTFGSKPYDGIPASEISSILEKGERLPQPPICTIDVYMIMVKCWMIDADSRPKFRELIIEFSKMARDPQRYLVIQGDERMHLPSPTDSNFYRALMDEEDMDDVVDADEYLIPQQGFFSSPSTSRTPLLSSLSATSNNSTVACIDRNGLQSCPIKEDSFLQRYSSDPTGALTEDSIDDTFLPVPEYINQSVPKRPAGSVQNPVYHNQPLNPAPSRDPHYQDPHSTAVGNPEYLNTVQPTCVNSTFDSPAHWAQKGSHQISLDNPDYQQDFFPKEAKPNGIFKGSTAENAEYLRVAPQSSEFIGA
In short: as §1

EGFR del19/C797S = EGFR del19/C797S (Homo sapiens, UniProt P00533, C797S/DEL746-750); assay: Biochemical EGFR kinase assay (Lance Ultra TR-FRET), double mutant del19/C797S
Sequence of EGFR del19/C797S (P00533 with tags, fused parts or gaps DEL746-750/C797S): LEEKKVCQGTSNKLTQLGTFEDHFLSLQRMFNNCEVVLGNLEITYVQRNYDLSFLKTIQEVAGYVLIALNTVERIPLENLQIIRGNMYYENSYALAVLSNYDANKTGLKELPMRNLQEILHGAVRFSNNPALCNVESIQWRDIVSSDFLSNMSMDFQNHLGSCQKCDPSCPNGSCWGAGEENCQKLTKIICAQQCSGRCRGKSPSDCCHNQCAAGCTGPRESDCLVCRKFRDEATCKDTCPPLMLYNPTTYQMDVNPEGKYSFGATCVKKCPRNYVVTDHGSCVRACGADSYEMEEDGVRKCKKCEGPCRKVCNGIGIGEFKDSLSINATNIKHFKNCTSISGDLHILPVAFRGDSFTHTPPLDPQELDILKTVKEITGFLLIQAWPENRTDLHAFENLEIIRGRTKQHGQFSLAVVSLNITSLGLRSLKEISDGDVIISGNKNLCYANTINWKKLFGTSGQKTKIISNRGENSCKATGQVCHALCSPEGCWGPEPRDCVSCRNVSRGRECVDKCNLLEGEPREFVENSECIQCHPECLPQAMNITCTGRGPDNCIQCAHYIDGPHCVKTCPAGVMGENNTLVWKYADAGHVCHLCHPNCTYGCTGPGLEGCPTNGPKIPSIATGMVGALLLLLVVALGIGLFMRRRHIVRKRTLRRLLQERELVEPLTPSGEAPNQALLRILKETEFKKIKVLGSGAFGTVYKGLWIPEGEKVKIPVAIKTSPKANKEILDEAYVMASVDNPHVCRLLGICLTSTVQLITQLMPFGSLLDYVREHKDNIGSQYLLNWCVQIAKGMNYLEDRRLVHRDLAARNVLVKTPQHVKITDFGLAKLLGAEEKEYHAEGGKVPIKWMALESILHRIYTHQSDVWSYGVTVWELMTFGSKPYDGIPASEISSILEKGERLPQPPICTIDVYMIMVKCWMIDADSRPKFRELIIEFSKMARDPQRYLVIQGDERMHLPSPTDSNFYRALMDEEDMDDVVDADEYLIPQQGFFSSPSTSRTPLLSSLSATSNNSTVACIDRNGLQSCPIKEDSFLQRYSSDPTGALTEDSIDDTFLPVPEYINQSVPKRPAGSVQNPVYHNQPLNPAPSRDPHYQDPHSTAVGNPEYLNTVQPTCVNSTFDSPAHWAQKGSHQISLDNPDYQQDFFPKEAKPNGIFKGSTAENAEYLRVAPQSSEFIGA
In short: as §1

EGFR L858R/C797S = EGFR L858R/C797S (Homo sapiens, UniProt P00533, C797S/L858R); assay: Biochemical EGFR kinase assay (Lance Ultra TR-FRET), double mutant L858R/C797S
Sequence of EGFR L858R/C797S (P00533 25-1210 C797S/L858R): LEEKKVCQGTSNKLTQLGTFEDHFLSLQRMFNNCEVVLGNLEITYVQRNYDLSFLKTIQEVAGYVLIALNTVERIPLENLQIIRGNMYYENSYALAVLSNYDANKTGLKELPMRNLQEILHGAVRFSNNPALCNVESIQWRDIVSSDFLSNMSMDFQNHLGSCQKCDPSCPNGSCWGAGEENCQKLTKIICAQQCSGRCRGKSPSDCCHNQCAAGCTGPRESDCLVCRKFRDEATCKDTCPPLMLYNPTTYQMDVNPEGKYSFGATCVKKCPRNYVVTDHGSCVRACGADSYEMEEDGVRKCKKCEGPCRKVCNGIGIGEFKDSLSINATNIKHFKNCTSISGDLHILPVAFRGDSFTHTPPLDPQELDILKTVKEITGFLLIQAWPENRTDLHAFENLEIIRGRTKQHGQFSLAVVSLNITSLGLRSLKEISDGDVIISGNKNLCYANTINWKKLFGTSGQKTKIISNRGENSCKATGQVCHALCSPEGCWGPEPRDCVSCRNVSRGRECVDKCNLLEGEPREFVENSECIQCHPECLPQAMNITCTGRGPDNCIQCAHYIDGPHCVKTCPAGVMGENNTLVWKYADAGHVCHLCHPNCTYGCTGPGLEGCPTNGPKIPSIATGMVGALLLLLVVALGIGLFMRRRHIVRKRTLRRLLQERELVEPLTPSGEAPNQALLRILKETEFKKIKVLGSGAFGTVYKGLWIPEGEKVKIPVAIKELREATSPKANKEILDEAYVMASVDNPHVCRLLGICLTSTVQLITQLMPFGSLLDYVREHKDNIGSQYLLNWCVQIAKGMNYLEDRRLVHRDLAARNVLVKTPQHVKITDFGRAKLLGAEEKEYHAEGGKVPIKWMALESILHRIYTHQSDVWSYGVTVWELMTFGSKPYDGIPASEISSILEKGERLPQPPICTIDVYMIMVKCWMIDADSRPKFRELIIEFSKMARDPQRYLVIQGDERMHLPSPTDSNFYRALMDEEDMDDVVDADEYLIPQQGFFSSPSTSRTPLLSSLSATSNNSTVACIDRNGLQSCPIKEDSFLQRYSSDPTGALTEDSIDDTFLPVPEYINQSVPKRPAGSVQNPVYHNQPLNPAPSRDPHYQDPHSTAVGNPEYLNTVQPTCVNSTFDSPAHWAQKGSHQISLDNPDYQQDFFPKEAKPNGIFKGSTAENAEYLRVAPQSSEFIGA
In short: as §1

EGFR wildtype (WT) = EGFR wildtype (WT) (Homo sapiens, UniProt P00533); assay: Biochemical EGFR kinase assay (Lance Ultra TR-FRET), wildtype
Sequence of EGFR wildtype (WT) (P00533 25-1210): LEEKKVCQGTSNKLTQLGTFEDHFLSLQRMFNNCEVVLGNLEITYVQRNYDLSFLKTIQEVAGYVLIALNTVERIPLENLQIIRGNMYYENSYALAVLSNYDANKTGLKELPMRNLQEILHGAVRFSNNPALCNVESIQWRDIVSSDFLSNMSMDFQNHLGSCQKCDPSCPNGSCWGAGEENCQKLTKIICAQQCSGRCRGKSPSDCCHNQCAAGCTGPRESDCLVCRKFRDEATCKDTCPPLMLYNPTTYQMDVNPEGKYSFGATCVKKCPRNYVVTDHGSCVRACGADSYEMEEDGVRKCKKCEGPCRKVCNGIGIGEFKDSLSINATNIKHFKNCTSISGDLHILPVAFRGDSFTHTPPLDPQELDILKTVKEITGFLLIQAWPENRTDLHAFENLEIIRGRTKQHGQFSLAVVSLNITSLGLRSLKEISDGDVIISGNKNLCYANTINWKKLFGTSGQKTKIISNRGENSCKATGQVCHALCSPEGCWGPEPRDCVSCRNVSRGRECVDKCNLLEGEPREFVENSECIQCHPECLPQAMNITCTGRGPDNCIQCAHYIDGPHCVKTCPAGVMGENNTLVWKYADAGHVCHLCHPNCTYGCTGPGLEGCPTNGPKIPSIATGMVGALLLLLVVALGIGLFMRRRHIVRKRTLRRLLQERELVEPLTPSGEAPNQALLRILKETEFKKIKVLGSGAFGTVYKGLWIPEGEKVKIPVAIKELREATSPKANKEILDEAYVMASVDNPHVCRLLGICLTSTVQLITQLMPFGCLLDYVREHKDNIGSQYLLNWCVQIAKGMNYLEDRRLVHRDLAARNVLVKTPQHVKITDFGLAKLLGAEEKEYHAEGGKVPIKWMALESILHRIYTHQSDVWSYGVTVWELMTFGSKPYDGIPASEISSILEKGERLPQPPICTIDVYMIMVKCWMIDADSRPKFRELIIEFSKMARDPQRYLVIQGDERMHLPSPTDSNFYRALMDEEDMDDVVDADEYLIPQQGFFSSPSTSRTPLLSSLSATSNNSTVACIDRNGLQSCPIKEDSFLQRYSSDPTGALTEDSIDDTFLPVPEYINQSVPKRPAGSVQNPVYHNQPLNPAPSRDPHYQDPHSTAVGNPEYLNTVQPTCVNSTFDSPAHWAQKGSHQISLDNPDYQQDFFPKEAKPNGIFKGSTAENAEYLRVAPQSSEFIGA
In short: as §1

[1] = IC50 del19/T790M/C797S (nM) 100 μM ATP, 100 μM ATP
[2] = Km ATP, read-out: IC50 del19/T790M/C797S (nM) Km ATP
[3] = IC50 L858R/T790M/C797S (nM) 100 μM ATP, 100 μM ATP
[4] = Km ATP, read-out: IC50 L858R/T790M/C797S (nM) Km ATP
[5] = IC50 del19/C797S (nM) 100 μM ATP, 100 μM ATP
[6] = Km ATP, read-out: IC50 del19/C797S (nM) Km ATP
[7] = IC50 L858R/C797S (nM) 100 μM ATP, 100 μM ATP
[8] = Km ATP, read-out: IC50 L858R/C797S (nM) Km ATP
[9] = IC50 WT (nM) 100 μM ATP, 100 μM ATP
[10] = Km ATP, read-out: IC50 WT (nM) Km ATP

SMILES | IC50 (EGFR del19/T790M/C797S; [1]) | IC50 (EGFR del19/T790M/C797S; [2]) | IC50 (EGFR L858R/T790M/C797S; [3]) | IC50 (EGFR L858R/T790M/C797S; [4]) | IC50 (EGFR del19/C797S; [5]) | IC50 (EGFR del19/C797S; [6]) | IC50 (EGFR L858R/C797S; [7]) | IC50 (EGFR L858R/C797S; [8]) | IC50 (EGFR wildtype (WT); [9]) | IC50 (EGFR wildtype (WT); [10])
Cn1nc(-c2cnc(Nc3ccnc(-c4cnn(S(=O)(=O)C5CC5)c4)n3)cc2N[C@H]2CC[C@H](CCO)CC2)cc1C(F)(F)F [Example 263, 2-((1r,4r)-4-((2-((2-(1-(Cyclopropylsulfonyl)-1H-pyrazol-4-yl)pyrimidin-4-yl)amino)-5-(1-methyl-5-(trifluoromethyl)-1H-pyrazol-3-yl)pyridin-4-yl)amino)cyclohexyl)ethan-1-ol] | 9.9 nM | 0.3 nM | 11.5 nM | 2.6 nM | 237 nM | 15.5 nM | 32.5 nM | 6.3 nM | > 10000 nM | 54.5 nM
Cn1ccc(-c2cnc(Nc3ccnc(-c4cnn(S(=O)(=O)C5CC5)c4)n3)cc2N[C@H]2CC[C@@H](F)CC2)n1 [Example 174, N^2-(2-(1-(Cyclopropylsulfonyl)-1H-pyrazol-4-yl)pyrimidin-4-yl)-N^4-((1s,4s)-4-fluorocyclohexyl)-5-(1-methyl-1H-pyrazol-3-yl)pyridine-2,4-diamine] |  | 1.4 nM |  | 0.8 nM |  | 2.4 nM |  | 0.5 nM |  | 13.2 nM
O=S(=O)(C1CC1)n1cc(-c2nccc(Nc3cc(N[C@H]4CC[C@H](CO)CC4)c(-c4ccn(C(F)F)n4)cn3)n2)cn1 [Example 198, ((1r,4r)-4-((2-((2-(1-(Cyclopropylsulfonyl)-1H-pyrazol-4-yl)pyrimidin-4-yl)amino)-5-(1-(difluoromethyl)-1H-pyrazol-3-yl)pyridin-4-yl)amino)cyclohexyl)methanol] | 0.3 nM |  | 3.3 nM | 0.1 nM | 2.2 nM | 0.7 nM | 3040 nM | 4.2 nM | > 10000 nM | 84.7 nM
C[C@]1(O)CC[C@@H](Nc2cc(Nc3ccnc(-c4cnn(C5CC5)c4)n3)ncc2-c2ccn(C(F)F)n2)CC1 [Example 140, (1s,4s)-4-((2-((2-(1-Cyclopropyl-1H-pyrazol-4-yl)pyrimidin-4-yl)amino)-5-(1-(difluoromethyl)-1H-pyrazol-3-yl)pyridin-4-yl)amino)-1-methylcyclohexan-1-ol] | 3.7 nM | 1 nM | 3.4 nM | 1.1 nM | 37.2 nM | 27.3 nM | 91.5 nM | 7.1 nM | 8960 nM | 137 nM
C[C@]1(O)CC[C@@H](Nc2cc(Nc3ccnc(-c4cnc5c(c4)NCCO5)n3)ncc2-c2ccn(C(F)F)n2)CC1 [Example 154, (1s,4s)-4-((5-(1-(Difluoromethyl)-1H-pyrazol-3-yl)-2-((2-(2,3-dihydro-1H-pyrido[2,3-b][1,4]oxazin-7-yl)pyrimidin-4-yl)amino)pyridin-4-yl)amino)-1-methylcyclohexan-1-ol] |  | 0.3 nM |  | 0.2 nM |  | 128 nM |  | 16.2 nM |  | 377 nM
CC(C)(O)[C@H]1CC[C@@H](Nc2cc(Nc3ccnc(-c4cnn(S(=O)(=O)C5CC5)c4)n3)ncc2-c2ccn(CC(F)F)n2)CC1 [Example 243, 2-((1s,4s)-4-((2-((2-(1-(Cyclopropylsulfonyl)-1H-pyrazol-4-yl)pyrimidin-4-yl)amino)-5-(1-(2,2-difluoroethyl)-1H-pyrazol-3-yl)pyridin-4-yl)amino)cyclohexyl)propan-2-ol] | 2.7 nM |  | 1 nM | 0.2 nM | 2 nM | 1.7 nM | 10 nM | 4.5 nM | 4010 nM | 8.4 nM
C[C@]1(O)CC[C@@H](Nc2cc(Nc3ccnc(-c4cnn(CC(F)F)c4)n3)ncc2-c2ccn(C(F)F)n2)CC1 [Example 143, (1s,4s)-4-((2-((2-(1-(2,2-Difluoroethyl)-1H-pyrazol-4-yl)pyrimidin-4-yl)amino)-5-(1-(difluoromethyl)-1H-pyrazol-3-yl)pyridin-4-yl)amino)-1-methylcyclohexan-1-ol] | 0.1 nM | 0.1 nM | 0.2 nM | 0.1 nM | 2.7 nM | 2.9 nM | 11.6 nM | 0.9 nM | > 10000 nM | 62.7 nM
